# In US10913742B2, “Oxadiazolones as transient receptor potential channel inhibitors” (Genentech, Inc., priority 2017, dated 2021):
# Biological target: human TRPA1 (Homo sapiens (Human), UniProt O75762)
# Assay: hTRPA1 CHO Ca2+ FLIPR assay (block of cinnamaldehyde induced calcium influx)
# Type: cell-based
# Details: CHO cells expressing TRPA1; 75 uM cinnamaldehyde; Hill coefficient fixed to 1.5; read-out: hTRPA1 (hTRPA1 CHO Ca2+ MAX EVO (IC50))
# Protocol: CHO cells expressing TRPA1 were plated into 384-well plates, incubated overnight at 37° C., and loaded with BD calcium indicator dye for 1 hr at 37° C. followed by 15 minutes at room temperature. The assay buffer was Hank's Balanced Salt Solution (HBSS) containing 20 mM HEPES (pH readjusted to 7.4) along with 0.02% BSA.
# Following dye load and plate cool down, compounds were added to the cells using FLIPR Tetra. Plates were then incubated with compounds for 20 minutes at room temperature prior to adding agonist.
# The IC50 results were fit with a standard Hill function, keeping the Hill coefficient (n) fixed to 1.5. Fixing the Hill coefficient will generally reduce variability of the IC50 determination. The IC50 results were individually examined to make sure the MIN and MAX points were set correctly prior to validation of the results.
# Chain of human TRPA1 (O75762 whole entry): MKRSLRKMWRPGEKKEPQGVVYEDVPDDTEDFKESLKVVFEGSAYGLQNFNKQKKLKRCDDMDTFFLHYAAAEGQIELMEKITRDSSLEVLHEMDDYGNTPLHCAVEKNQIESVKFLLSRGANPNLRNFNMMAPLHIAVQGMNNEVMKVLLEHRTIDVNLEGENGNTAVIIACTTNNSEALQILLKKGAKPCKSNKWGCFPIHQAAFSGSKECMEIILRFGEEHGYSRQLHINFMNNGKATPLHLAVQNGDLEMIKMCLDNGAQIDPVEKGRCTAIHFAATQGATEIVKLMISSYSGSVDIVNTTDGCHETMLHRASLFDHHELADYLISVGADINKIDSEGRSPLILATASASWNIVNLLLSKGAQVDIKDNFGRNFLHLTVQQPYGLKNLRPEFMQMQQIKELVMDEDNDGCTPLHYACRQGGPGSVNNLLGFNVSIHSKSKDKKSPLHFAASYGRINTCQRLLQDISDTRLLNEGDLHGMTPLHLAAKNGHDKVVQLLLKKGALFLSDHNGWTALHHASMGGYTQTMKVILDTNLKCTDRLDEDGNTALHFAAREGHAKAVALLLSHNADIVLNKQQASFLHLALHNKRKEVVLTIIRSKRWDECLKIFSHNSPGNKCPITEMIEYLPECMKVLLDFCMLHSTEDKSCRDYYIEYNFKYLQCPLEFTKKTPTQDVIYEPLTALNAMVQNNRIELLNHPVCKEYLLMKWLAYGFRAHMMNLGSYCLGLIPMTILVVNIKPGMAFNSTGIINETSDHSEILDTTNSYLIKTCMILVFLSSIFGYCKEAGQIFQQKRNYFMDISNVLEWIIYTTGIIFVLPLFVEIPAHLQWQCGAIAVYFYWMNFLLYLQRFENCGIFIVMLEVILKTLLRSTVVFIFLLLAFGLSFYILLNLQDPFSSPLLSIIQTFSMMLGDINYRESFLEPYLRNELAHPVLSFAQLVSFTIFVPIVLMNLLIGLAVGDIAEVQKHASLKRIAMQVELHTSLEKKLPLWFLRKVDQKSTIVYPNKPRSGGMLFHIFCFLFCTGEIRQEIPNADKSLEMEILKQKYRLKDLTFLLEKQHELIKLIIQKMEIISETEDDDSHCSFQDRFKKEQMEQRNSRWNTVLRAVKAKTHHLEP
row,Compound,IC50 [nM]
1,"Cn1nnc2ncn(Cc3nn([C@H]4C[C@H](c5ccc(Cl)cc5)C4)c(=O)o3)c(=O)c21 [compound 64, trans-3-[3-(4-chlorophenyl)cyclobutyl]-5-[(1-methyl-7-oxo-triazolo[4,5-d]pyrimidin-6-yl)methyl]-1,3,4-oxadiazol-2-one]",76.9
2,"Cn1cnc2ncn(Cc3nn(CCc4ccc(Cl)c(-c5ccccc5)c4)c(=O)o3)c(=O)c21 [compound 42, 3-(2-(6-chlorobiphenyl-3-yl)ethyl)-5-((7-methyl-6-oxo-6H-purin-1(7H)-yl)methyl)-1,3,4-oxadiazol-2(3H)-one]",98
3,"Cn1cnc2ncn(Cc3nn(C[C@@H]4CCc5cc(Cl)ccc54)c(=O)o3)c(=O)c21 [compound 49, (R)-3-((5-chloro-2,3-dihydro-1H-inden-1-yl)methyl)-5-((7-methyl-6-oxo-6,7-dihydro-1H-purin-1-yl)methyl)-1,3,4-oxadiazol-2(3H)-one]",61
4,"O=c1c2cccnc2ncn1Cc1nn([C@H]2C[C@H](c3ccc(Cl)cc3)C2)c(=O)o1 [compound 98, trans-3-[3-(4-chlorophenyl)cyclobutyl]-5-[(4-oxopyrido[2,3-d]pyrimidin-3-yl)methyl]-1,3,4-oxadiazol-2-one]",16.2
5,"C[C@@H](Cn1nc(Cn2cnc3ncn(C)c3c2=O)oc1=O)c1ccc(Cl)cc1 [compound 20, (R)-3-(2-(4-chlorophenyl)propyl)-5-((7-methyl-6-oxo-6H-purin-1(7H)-yl)methyl)-1,3,4-oxadiazol-2(3H)-one]",812
6,"Cn1cnc2ncn(Cc3nn(CCc4ccc(OC(F)F)cc4)c(=O)o3)c(=O)c21 [compound 2, 3-(4-(difluoromethoxy)phenethyl)-5-((7-methyl-6-oxo-6H-purin-1(7H)-yl)methyl)-1,3,4-oxadiazol-2(3H)-one]",211
7,"Cn1cnc2ncn(Cc3nn(C[C@H](F)c4ccc(Br)cc4)c(=O)o3)c(=O)c21 [compound 44, (R)-3-(2-(4-bromophenyl)-2-fluoroethyl)-5-((7-methyl-6-oxo-6H-purin-1(7H)-yl)methyl)-1,3,4-oxadiazol-2(3H)-one]",10
8,"Cn1cnc2ncn(Cc3nn([C@H]4C[C@](F)(c5ccc(F)cc5)C4)c(=O)o3)c(=O)c21 [compound 97, 3-[3-fluoro-3-(4-fluorophenyl)cyclobutyl]-5-[(7-methyl-6-oxo-purin-1-yl)methyl]-1,3,4-oxadiazol-2-one]",80.2
9,"Cn1cnc2ncn(Cc3nn([C@H]4CC[C@H](c5ccccc5)C4)c(=O)o3)c(=O)c21 (racemic) [compound 108, 5-[(7-methyl-6-oxo-purin-1-yl)methyl]-3-[rac-(1S,3S)-3-phenylcyclopentyl]-1,3,4-oxadiazol-2-one]",156
10,"Cn1cnc2ncn(Cc3nn(C[C@@H](F)c4ccc(Cl)cc4)c(=O)o3)c(=O)c21 [compound 15, (S)-3-(2-(4-chlorophenyl)-2-fluoroethyl)-5-((7-methyl-6-oxo-6H-purin-1(7H)-yl)methyl)-1,3,4-oxadiazol-2(3H)-one]",3830
11,"Cn1cnc2ncn(Cc3nn([C@H]4C[C@H](Oc5cccc(C#N)c5)C4)c(=O)o3)c(=O)c21 [compound 62, 3-[3-[5-[(7-methyl-6-oxo-purin-1-yl)methyl]-2-oxo-1,3,4-oxadiazol-3-yl]cyclobutoxy]benzonitrile]",45.5
12,"Cn1cnc2ncn(Cc3nn([C@H]4C[C@H](Oc5ccc(Cl)cc5)C4)c(=O)o3)c(=O)c21 [compound 69, 3-[3-(4-chlorophenoxy)cyclobutyl]-5-[(7-methyl-6-oxo-purin-1-yl)methyl]-1,3,4-oxadiazol-2-one]",785
13,"Cc1ccnc2ncn(Cc3nn(CC(F)c4ccc(Cl)cc4)c(=O)o3)c(=O)c12 (stereo in doubt) [compound 33, 5-[(5-methyl-4-oxo-pyrido[2,3-d]pyrimidin-3-yl)methyl]-3-[(2R)-2-(4-chlorophenyl)-2-fluoro-ethyl]-1,3,4-oxadiazol-2-one]",180
14,"Cn1cnc2ncn(Cc3nn([C@H]4C[C@H](c5ccc(C#N)cc5)C4)c(=O)o3)c(=O)c21 [compound 71, 4-[3-[5-[(7-methyl-6-oxo-purin-1-yl)methyl]-2-oxo-1,3,4-oxadiazol-3-yl]cyclobutyl]benzonitrile]",59.7
15,"Cn1cnc2ncn(Cc3nn(CCc4ccc(Cl)s4)c(=O)o3)c(=O)c21 [compound 21, 3-(2-(5-chlorothiophen-2-yl)ethyl)-5-((7-methyl-6-oxo-6H-purin-1(7H)-yl)methyl)-1,3,4-oxadiazol-2(3H)-one]",286
16,"Cc1ccnc2ncn(Cc3nn([C@H]4C[C@](F)(c5cccc(F)c5)C4)c(=O)o3)c(=O)c12 [compound 75, 3-[3-fluoro-3-(3-fluorophenyl)cyclobutyl]-5-[(5-methyl-4-oxo-pyrido[2,3-d]pyrimidin-3-yl)methyl]-1,3,4-oxadiazol-2-one]",40.5

row,Compound,IC50 [nM]
1,"COc1ccc([C@H]2C[C@H](n3nc(Cn4cnc5ncn(C)c5c4=O)oc3=O)C2)cc1 [compound 54, 3-(3-(4-methoxyphenyl)cyclobutyl)-5-((7-methyl-6-oxo-6,7-dihydro-1H-purin-1-yl)methyl)-1,3,4-oxadiazol-2(3H)-one]",105
2,"Cn1cnc2ncn(Cc3nn([C@@H]4CC[C@@H](c5ccc(F)cc5)C4)c(=O)o3)c(=O)c21 [compound 92, 5-[(7-methyl-6-oxo-purin-1-yl)methyl]-3-[(1R,3R)-3-(4-fluorophenyl)cyclopentyl]-1,3,4-oxadiazol-2-one]",8.26
3,"Cn1cnc2c(C#N)nn(Cc3nn(CCc4ccc(Cl)cc4)c(=O)o3)c2c1=O [compound 22, 1-([4-[2-(4-chlorophenyl)ethyl]-5-oxo-4,5-dihydro-1,3,4-oxadiazol-2-yl]methyl)-6-methyl-7-oxo-1H,6H,7H-pyrazolo[4,3-d]pyrimidine-3-carbonitrile]",14
4,"O=c1c2cccnc2cnn1Cc1nn([C@H]2C[C@H](c3ccc(Cl)cc3)C2)c(=O)o1 [compound 90, 3-[3-(4-chlorophenyl)cyclobutyl]-5-[(5-oxopyrido[2,3-d]pyridazin-6-yl)methyl]-1,3,4-oxadiazol-2-one]",79.9
5,"Cn1cnc2ncn(Cc3nn(C[C@@H](F)c4ccc(Br)cc4)c(=O)o3)c(=O)c21 [compound 45, (S)-3-(2-(4-bromophenyl)-2-fluoroethyl)-5-((7-methyl-6-oxo-6H-purin-1(7H)-yl)methyl)-1,3,4-oxadiazol-2(3H)-one]",1200
6,"Cn1c(=O)ccc2ncn(Cc3nn(C[C@H](F)c4ccc(Cl)cc4)c(=O)o3)c(=O)c21 (racemic) [compound 87, 5-methyl-3-[[5-oxo-4-[rac-(2R)-2-(4-chlorophenyl)-2-fluoro-ethyl]-1,3,4-oxadiazol-2-yl]methyl]pyrido[3,2-d]pyrimidine-4,6-dione]",43.8
7,"Cn1cnc2ncn(Cc3nn([C@H]4C[C@H](c5ccc(OC(F)F)cc5)C4)c(=O)o3)c(=O)c21 [compound 103, 3-[3-[(trans)-4-(difluoromethoxy)phenyl]cyclobutyl]-5-[(7-methyl-6-oxo-purin-1-yl)methyl]-1,3,4-oxadiazol-2-one]",26
8,"Cn1cnc2ncn(Cc3nn(CCc4ccc(Cl)cc4)c(=O)o3)c(=O)c21 [compound 1, 3-[2-(4-chlorophenyl)ethyl]-5-[(7-methyl-6-oxo-purin-1-yl)methyl]-1,3,4-oxadiazol-2-one]",95
9,"Cn1cnc2ncn(Cc3nn([C@H]4C[C@H](c5ccc(Br)cc5)C4)c(=O)o3)c(=O)c21 [compound 52, 3-[3-(4-bromophenyl)cyclobutyl]-5-[(7-methyl-6-oxo-purin-1-yl)methyl]-1,3,4-oxadiazol-2-one]",20
10,"Cn1cnc2ncn(Cc3nn([C@H]4C[C@H](c5ccc(F)cc5)C4)c(=O)o3)c(=O)c21 [compound 112, 3-[3-(4-fluorophenyl)cyclobutyl]-5-[(7-methyl-6-oxo-purin-1-yl)methyl]-1,3,4-oxadiazol-2-one]",64.8
11,"O=c1c2cccnc2ncn1Cc1nn([C@@H]2CC[C@@H](c3ccc(F)cc3)C2)c(=O)o1 (racemic) [compound 78, 5-[(4-oxopyrido[2,3-d]pyrimidin-3-yl)methyl]-3-[rac-(1R,3R)-3-(4-fluorophenyl)cyclopentyl]-1,3,4-oxadiazol-2-one]",40.6
12,"Cc1ccnc2ncn(Cc3nn([C@H]4C[C@](F)(c5ccc(C#N)cc5)C4)c(=O)o3)c(=O)c12 [compound 77, 4-[1-fluoro-3-[5-[(5-methyl-4-oxo-pyrido[2,3-d]pyrimidin-3-yl)methyl]-2-oxo-1,3,4-oxadiazol-3-yl]cyclobutyl] benzonitrile]",21.4
13,"Cc1ccnc2ncn(Cc3nn([C@H]4C[C@H](c5ccc(Cl)cc5)C4)c(=O)o3)c(=O)c12 [compound 107, 3-[3-(4-chlorophenyl)cyclobutyl]-5-[(5-methyl-4-oxo-pyrido[2,3-d]pyrimidin-3-yl)methyl]-1,3,4-oxadiazol-2-one]",6.3
14,"Cn1cnc2ncn(Cc3nn(CCc4ccc(C(F)(F)F)cc4)c(=O)o3)c(=O)c21 [compound 9, 5-((7-methyl-6-oxo-6H-purin-1(7H)-yl)methyl)-3-(4-(trifluoromethyl)phenethyl)-1,3,4-oxadiazol-2(3H)-one]",582
15,"Cn1cnc2ncn(Cc3nn(CCc4ccc5ccccc5c4)c(=O)o3)c(=O)c21 [compound 12, 5-((7-methyl-6-oxo-6H-purin-1(7H)-yl)methyl)-3-(2-(naphthalen-2-yl)ethyl)-1,3,4-oxadiazol-2(3H)-one]",41
16,"Cn1cnc2cnn(Cc3nn([C@H]4C[C@H](c5ccc(Cl)cc5)C4)c(=O)o3)c(=O)c21 [compound 89, 3-[3-(4-chlorophenyl)cyclobutyl]-5-[(3-methyl-4-oxo-imidazo[4,5-d]pyridazin-5-yl)methyl]-1,3,4-oxadiazol-2-one]",45.7
